Experimental data reported in ChEMBL document CHEMBL1201862, “PubChem BioAssay data set” (2004).
The source made the active and inactive calls.

How the values were obtained:
[1] = molecular target: T1, Carboxy-terminal domain RNA polymerase II polypeptide A small phosphatase 1 (Homo sapiens, UniProt Q9GZU7); experiment: CTDSP1 inhibitors, concentration-response, biochemical, absorbance readout, ultra-high-throughput screen actives (AID 540297); type: functional
T1 sequence (Q9GZU7 whole entry): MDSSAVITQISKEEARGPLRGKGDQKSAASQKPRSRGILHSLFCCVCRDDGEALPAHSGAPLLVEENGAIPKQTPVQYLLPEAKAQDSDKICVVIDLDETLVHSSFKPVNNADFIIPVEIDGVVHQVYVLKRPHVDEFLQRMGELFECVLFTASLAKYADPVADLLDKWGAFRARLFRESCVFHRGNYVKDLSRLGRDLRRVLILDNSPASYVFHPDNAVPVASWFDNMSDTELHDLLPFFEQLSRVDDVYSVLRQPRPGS

[2] = molecular target: T2, Low molecular weight phosphotyrosine protein phosphatase (Homo sapiens, UniProt P24666); type: functional; conditions: read-out: IC50_Mean
T2 sequence (P24666 whole entry): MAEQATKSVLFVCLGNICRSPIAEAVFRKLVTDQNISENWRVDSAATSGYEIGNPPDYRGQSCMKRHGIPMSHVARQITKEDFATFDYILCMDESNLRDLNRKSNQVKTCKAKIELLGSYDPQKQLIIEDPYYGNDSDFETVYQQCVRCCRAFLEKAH

[3] = molecular target: T2, Low molecular weight phosphotyrosine protein phosphatase; type: functional; conditions: read-out: IC50_Mean; remark: listed apart in the source
[4] = molecular target: T3, Mitochondrial peptide methionine sulfoxide reductase (Bos taurus, UniProt P54149); type: functional;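 also: absorbance read-out, biochemical high-throughput dose-response screen for MsrA inhibitors, confirmatory; recombinant bovine MsrA coupled to E. coli TrxB with NADPH and selenocystamine; potency is for inhibitors of MsrA activity on DMSO substrate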
T3 sequence (P54149 whole entry): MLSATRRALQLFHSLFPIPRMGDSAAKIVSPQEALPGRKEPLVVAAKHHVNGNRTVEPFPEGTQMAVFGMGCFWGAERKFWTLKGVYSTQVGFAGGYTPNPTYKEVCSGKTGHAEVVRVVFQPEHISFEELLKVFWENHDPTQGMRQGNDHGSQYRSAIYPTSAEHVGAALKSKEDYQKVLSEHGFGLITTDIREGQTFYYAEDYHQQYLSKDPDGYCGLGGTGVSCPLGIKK

[5] = molecular target: T4, Replicative DNA helicase DnaB (Mycobacterium tuberculosis, UniProt P9WMR3); experiment: DnaB intein splicing inhibitors, dose response, biochemical, cell-free fluorescence (AID 449749); type: functional
T4 sequence (P9WMR3 whole entry): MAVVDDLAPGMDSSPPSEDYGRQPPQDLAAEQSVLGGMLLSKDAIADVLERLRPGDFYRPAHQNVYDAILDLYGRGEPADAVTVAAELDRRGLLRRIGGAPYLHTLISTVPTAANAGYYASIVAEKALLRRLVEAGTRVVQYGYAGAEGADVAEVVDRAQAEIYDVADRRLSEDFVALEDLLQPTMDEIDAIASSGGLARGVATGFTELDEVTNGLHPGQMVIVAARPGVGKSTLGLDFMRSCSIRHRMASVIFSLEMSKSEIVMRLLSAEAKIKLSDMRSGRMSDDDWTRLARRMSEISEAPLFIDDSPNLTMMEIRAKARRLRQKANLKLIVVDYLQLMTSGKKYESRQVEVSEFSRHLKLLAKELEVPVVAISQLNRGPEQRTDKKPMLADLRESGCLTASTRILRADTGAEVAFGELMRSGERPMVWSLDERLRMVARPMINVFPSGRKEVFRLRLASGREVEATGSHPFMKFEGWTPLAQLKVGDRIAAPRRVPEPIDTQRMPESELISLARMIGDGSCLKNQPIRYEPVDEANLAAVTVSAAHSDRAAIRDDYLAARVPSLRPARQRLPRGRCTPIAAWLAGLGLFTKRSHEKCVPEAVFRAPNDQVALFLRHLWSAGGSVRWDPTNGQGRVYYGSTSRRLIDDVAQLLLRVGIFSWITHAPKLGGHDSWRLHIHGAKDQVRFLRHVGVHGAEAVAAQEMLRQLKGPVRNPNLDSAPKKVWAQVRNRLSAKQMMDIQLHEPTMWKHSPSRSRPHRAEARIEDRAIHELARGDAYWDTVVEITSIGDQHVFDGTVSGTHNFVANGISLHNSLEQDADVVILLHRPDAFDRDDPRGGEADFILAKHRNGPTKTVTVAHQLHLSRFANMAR

BJ [6] = experiment: BJ-TERT fibroblast viability loss – cell-based, RAS-independent, luminescence, dose response (AID 1933); type: functional; conditions: Homo sapiens
[7] = DRD fibroblast viability loss – cell-based, non-viral oncogenic, luminescence, dose response (AID 1934); type: functional; conditions: Homo sapiens
BJ [8] = experiment: cells; type: functional, cell-based; conditions: Homo sapiens
Hexokinase HKDC1 = molecular target: T5, Hexokinase HKDC1 (Homo sapiens, UniProt Q2TB90); experiment: inhibition of HKDC1 glucose phosphorylation – biochemical, W721R variant, dose response (AID 504729); type: functional
T5 sequence (Q2TB90 whole entry): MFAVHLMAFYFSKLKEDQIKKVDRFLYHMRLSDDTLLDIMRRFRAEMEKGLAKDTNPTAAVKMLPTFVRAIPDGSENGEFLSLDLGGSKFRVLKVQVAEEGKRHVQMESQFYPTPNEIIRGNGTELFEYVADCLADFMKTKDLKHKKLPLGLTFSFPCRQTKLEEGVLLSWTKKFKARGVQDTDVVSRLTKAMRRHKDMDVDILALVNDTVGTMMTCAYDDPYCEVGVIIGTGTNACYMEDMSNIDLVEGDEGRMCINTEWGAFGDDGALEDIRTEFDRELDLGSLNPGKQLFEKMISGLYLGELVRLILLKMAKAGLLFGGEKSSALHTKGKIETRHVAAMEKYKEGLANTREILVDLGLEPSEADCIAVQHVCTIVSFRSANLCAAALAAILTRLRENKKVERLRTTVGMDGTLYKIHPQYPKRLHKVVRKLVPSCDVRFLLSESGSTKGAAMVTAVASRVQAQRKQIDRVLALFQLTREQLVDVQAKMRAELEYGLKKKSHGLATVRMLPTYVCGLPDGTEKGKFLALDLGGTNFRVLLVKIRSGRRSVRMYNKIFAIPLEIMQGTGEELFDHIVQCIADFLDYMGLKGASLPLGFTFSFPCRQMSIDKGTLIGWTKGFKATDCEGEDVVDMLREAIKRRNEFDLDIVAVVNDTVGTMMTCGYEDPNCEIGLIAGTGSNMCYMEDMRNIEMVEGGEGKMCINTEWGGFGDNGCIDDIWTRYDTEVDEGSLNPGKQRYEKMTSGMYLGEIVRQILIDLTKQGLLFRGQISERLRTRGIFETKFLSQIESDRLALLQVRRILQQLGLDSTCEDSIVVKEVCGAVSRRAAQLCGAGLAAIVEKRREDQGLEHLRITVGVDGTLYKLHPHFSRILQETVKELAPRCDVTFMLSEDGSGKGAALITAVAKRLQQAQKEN

[9] = viability of HCT116 lacking mutant beta-catenin – cell-based, human colon tumor, dose response (AID 1045); type: functional;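 also: HCT116 colon tumor cells with beta catenin knocked out; cells exposed to compound for 60 hours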
[10] = viability of PTEN-deleted HCT116 cells – cell-based, HCT116 PTEN knockout, dose response (AID 1047); type: functional;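 also: HCT116 colon tumor cells with PTEN knocked out; cells exposed to compound for 60 hours before readout; potency for loss of cell viability measured by luminescence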
Protein RecA = molecular target: T6, Protein RecA (Mycobacterium tuberculosis, UniProt P9WHJ3); experiment: Fluorescence Cell-Free Homogeneous Dose Retest to Identify Inhibitors of RecA-Intein Splicing Activity. [Related pubchem assays (depositor defined):AID2097, AID2223, AID489010, AID492950]; type: functional
T6 sequence (P9WHJ3 whole entry): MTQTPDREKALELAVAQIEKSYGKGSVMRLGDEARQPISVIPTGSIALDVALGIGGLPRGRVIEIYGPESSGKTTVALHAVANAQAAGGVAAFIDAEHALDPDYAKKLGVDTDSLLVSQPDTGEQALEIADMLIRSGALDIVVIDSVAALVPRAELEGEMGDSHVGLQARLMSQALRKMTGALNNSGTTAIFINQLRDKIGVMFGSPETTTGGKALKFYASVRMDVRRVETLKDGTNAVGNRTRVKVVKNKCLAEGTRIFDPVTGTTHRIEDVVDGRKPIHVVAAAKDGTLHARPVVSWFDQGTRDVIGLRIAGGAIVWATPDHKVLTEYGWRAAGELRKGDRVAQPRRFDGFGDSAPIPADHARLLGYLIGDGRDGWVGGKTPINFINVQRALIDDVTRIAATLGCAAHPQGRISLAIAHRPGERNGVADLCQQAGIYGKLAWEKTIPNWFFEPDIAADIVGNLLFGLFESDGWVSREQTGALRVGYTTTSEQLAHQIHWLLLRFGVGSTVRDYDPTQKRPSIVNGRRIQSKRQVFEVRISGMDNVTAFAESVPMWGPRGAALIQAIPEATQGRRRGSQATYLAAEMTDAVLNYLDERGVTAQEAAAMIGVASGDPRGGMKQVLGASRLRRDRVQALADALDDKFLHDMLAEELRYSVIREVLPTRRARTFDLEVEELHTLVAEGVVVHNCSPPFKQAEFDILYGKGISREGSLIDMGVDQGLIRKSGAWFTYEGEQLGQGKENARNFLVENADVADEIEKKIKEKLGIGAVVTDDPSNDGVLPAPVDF

BJ [11] = experiment: BJ-TERT-LT-ST fibroblast viability loss – cell-based, RAS-independent, luminescence, dose response (AID 1935); type: functional; conditions: Homo sapiens;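 also: BJ fibroblasts immortalized with TERT plus LT and ST oncogenes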
[12] = molecular target: Voltage-dependent T-type calcium channel subunit alpha-1H (Homo sapiens, UniProt O95180); type: functional;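 also: channel activity triggered by adding a high calcium stimulation buffer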
Voltage-dependent T-type calcium channel subunit alpha-1H, sequence (O95180 whole entry): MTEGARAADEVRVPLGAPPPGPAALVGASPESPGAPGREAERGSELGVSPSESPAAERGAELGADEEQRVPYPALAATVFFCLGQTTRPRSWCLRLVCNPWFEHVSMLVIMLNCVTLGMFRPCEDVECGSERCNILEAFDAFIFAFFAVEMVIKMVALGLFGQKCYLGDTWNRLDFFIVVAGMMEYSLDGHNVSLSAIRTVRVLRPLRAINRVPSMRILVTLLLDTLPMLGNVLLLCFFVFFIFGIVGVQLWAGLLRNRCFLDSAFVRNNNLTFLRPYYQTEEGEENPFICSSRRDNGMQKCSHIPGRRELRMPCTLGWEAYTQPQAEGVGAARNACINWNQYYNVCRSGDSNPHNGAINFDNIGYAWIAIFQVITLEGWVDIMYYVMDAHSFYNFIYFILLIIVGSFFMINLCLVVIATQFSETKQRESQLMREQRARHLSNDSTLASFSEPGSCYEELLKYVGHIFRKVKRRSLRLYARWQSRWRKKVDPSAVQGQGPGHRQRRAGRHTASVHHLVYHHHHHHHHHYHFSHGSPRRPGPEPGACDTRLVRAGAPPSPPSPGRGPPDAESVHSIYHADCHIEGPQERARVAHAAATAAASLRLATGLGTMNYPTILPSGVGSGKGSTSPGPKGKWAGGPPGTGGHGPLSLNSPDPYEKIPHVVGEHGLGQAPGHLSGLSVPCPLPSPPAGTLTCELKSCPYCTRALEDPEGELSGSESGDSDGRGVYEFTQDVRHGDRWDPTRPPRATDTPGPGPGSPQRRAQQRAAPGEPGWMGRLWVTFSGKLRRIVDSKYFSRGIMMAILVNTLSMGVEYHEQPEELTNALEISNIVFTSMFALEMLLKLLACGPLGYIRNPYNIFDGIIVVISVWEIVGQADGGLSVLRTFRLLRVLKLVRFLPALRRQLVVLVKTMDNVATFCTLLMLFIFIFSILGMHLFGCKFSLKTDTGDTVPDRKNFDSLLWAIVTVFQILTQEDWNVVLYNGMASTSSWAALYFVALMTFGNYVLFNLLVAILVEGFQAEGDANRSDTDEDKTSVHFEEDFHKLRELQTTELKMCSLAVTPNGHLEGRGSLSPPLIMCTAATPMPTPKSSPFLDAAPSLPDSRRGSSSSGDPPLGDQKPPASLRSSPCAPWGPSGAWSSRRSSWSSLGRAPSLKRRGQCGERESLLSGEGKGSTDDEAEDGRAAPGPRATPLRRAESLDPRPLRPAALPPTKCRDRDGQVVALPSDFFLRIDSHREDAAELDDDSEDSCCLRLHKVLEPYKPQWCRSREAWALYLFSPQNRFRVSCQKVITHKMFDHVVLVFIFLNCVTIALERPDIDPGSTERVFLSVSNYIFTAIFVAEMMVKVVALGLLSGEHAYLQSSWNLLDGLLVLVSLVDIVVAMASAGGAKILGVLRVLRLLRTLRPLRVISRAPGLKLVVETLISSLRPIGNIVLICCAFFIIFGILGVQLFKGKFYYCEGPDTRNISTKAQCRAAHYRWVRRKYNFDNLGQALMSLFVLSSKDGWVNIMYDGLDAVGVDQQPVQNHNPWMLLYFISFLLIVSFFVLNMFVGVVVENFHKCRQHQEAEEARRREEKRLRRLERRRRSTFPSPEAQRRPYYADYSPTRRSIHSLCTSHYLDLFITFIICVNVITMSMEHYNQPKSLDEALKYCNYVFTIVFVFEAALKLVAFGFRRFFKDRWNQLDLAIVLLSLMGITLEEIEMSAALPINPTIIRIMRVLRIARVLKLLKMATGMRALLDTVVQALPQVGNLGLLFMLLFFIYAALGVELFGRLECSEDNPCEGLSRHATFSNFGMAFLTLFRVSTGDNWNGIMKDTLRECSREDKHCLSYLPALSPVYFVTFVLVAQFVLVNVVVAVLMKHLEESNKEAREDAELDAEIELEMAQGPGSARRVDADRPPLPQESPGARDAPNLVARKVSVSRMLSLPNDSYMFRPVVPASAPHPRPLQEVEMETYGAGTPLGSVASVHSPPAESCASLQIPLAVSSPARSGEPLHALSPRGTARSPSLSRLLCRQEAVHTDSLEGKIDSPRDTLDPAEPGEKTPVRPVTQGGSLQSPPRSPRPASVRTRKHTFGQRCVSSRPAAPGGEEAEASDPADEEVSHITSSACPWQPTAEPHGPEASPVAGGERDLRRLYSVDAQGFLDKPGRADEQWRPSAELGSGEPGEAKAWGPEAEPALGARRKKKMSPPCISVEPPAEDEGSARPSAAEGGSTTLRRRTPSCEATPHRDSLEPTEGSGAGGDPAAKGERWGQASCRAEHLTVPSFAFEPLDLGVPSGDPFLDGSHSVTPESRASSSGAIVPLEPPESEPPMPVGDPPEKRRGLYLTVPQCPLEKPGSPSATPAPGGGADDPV

[13] = molecular target: Potassium voltage-gated channel subfamily KQT member 2 (Rattus norvegicus, UniProt O88943); experiment: blockers of KCNQ2 channel current – cell-based, automated electrophysiology, set II, rat KCNQ2, dose response (AID 588637); type: functional
Potassium voltage-gated channel subfamily KQT member 2, sequence (O88943 whole entry): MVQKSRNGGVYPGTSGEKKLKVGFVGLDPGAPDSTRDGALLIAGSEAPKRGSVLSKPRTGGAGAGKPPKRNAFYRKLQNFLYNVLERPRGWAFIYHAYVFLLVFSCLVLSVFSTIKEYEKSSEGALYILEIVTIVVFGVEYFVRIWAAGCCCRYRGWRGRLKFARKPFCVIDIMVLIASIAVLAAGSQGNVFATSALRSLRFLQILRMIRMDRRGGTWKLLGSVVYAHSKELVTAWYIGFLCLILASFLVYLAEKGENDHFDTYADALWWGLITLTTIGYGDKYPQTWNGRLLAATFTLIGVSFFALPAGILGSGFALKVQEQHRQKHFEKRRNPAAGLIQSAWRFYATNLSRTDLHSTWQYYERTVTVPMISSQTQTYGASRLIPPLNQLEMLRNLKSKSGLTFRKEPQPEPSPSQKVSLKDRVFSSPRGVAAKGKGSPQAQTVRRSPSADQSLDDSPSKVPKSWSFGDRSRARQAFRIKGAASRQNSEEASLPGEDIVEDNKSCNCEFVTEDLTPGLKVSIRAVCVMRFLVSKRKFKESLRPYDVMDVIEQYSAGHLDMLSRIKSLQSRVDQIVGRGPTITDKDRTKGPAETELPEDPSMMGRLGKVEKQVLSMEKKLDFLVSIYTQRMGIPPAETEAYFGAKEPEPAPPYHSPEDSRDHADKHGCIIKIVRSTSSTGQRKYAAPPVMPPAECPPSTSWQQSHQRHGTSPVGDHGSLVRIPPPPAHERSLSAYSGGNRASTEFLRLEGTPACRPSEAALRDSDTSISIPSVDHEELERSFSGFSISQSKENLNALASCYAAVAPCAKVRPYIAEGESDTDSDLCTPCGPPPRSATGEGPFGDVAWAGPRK

H9c2 = experiment: cells; type: functional, cell-based; conditions: Rattus norvegicus, H9c2, Myocardium;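 also: confirmatory concentration-response retest of ultra-high-throughput screening hits for modulation of myocardial damage; cell death induced by hydrogen peroxide oxidative stress; compound pretreatment for 60 min then peroxide exposure for 2 h; potency is for protecting the cells against peroxide damage rather than for killing them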
[14] = molecular target: T7, ATP-dependent translocase ABCB1 (Homo sapiens, UniProt P08183); experiment: P-gp JC-1 efflux blockade concentration-response – Jurkat-DNR cells, flow cytometry, set 2, dose response (AID 504569); type: functional; conditions: read-out: EC50_MICROM_;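 also: potency of pump inhibitors that raise cellular JC-1 green fluorescence up to the nicardipine level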
T7 sequence (P08183 whole entry): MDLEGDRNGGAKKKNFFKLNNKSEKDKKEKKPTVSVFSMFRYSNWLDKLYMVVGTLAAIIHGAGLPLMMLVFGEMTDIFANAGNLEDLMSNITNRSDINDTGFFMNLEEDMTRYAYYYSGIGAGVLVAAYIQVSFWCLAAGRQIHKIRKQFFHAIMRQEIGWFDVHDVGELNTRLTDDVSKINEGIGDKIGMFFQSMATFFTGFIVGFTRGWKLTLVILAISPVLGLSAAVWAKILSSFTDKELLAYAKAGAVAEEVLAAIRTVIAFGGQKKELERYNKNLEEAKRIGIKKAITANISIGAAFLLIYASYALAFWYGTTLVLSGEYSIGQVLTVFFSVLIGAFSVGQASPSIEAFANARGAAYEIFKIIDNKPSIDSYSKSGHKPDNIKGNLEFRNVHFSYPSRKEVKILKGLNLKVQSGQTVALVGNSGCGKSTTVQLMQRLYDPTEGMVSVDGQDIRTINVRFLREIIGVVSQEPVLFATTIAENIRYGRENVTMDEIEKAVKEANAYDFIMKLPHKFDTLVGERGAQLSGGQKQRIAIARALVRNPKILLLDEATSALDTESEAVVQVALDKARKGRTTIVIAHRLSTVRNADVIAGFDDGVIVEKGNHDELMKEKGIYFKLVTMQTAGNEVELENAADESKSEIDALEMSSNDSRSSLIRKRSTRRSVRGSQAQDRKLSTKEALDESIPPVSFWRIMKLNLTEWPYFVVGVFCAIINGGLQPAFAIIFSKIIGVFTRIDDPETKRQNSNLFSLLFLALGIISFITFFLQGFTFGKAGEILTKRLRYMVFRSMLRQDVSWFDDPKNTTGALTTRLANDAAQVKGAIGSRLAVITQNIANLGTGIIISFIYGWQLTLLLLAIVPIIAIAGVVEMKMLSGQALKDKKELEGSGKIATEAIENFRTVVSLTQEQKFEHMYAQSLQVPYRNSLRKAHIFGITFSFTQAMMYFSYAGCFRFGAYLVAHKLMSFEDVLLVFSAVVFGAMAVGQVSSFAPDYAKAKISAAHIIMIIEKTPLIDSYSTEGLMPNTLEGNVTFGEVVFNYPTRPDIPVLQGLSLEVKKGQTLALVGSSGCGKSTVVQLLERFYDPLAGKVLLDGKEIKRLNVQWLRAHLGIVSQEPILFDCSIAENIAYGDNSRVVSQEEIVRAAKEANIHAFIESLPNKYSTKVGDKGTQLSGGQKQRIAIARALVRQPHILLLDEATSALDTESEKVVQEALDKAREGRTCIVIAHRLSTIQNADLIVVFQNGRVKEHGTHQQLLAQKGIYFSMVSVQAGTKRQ

[15] = molecular target: T7, ATP-dependent translocase ABCB1; experiment: inhibition of BCRP-mediated JC-1 efflux – Ig-MXP3 cells, flow cytometry, set 2, dose response (AID 504566); type: functional; conditions: read-out: EC50_MICROM_;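 also: flow cytometry median green fluorescence of retained JC-1 dye; potency of efflux pump inhibition measured as rising substrate retention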
[16] = molecular target: T8, Apoptotic protease-activating factor 1 (Homo sapiens, UniProt O14727); experiment: SAR analysis of small molecule Activators of Apaf-1 in a Fluorescent assay.; type: functional; conditions: read-out: EC50_Mean;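 also: caspase-3 cleavage of fluorogenic Rh110 DEVD substrate downstream of apoptosome activation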
T8 sequence (O14727 whole entry): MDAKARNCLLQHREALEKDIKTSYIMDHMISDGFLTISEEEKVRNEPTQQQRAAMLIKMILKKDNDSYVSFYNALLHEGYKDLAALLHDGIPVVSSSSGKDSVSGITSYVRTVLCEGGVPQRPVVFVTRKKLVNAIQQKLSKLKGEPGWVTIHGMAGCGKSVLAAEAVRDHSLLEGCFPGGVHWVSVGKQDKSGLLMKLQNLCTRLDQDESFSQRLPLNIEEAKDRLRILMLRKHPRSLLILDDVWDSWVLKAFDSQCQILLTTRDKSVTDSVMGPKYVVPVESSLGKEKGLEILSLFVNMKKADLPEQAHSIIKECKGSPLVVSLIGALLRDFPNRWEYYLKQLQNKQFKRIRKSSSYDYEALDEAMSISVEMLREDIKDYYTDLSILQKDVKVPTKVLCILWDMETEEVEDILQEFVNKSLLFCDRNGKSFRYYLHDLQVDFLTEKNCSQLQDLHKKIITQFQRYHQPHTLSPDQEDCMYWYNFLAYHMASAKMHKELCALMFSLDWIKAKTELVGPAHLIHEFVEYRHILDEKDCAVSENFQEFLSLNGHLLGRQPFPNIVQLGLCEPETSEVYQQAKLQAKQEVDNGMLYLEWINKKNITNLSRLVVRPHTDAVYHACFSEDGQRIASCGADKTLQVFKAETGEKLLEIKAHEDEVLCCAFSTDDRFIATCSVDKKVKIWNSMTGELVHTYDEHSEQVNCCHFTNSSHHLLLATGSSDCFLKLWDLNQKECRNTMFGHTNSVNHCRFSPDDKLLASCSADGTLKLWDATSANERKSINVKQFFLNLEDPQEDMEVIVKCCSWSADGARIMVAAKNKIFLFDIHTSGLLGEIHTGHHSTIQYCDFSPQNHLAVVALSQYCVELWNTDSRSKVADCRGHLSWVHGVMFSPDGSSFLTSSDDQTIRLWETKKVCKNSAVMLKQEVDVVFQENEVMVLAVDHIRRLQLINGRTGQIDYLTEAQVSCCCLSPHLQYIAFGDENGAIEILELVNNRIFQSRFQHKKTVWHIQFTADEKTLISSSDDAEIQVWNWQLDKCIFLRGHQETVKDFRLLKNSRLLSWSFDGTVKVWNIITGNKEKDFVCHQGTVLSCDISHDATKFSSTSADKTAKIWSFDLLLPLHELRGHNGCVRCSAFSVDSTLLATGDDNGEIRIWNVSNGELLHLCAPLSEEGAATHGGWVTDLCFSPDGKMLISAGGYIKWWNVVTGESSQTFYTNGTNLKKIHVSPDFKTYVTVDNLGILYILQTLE

Steroidogenic factor 1 = Steroidogenic factor 1 (Homo sapiens, UniProt Q13285); experiment: Counterscreen for inverse agonists of the liver receptor homolog-1 (LRH-1; NR5A2): Luminescence-based cell-based high throughput dose response assay to identify inverse agonists of the Steroidogenic Factor 1 Nuclear Receptor (SF1; NR5A1).; type: functional
Steroidogenic factor 1, sequence (Q13285 whole entry): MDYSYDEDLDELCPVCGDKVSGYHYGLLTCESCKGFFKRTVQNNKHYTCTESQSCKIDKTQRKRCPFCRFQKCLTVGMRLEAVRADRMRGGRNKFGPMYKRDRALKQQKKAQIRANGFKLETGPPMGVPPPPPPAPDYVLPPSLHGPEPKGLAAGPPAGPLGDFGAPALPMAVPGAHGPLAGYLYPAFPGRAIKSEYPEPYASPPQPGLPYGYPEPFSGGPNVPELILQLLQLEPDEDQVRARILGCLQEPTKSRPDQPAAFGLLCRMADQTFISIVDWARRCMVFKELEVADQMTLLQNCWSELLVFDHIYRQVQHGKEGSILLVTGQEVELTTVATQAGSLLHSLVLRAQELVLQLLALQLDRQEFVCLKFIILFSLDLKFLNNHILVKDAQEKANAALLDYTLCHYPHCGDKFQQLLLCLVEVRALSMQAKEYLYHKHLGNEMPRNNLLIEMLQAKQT

[17] = molecular target: Nuclear receptor subfamily 5 group A member 2 (Homo sapiens, UniProt O00482); type: functional, cell-based;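 also: HEK293T cells transfected with LRH-1 and a StAR promoter luciferase reporter; potency for inhibitors that lower LRH-1 driven reporter light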
[18] = nonselective StAR promoter luciferase inhibitors – cell-based, luminescence, luciferase reporter, counter-screen for LRH-1 inverse agonist project, dose response (AID 651969); type: functional

Cc1cc2oc(C(=O)NCCc3ccc(S(N)(=O)=O)cc3)c(C)c2cc1C
IC50 [1]: > 80 µM (inactive) | IC50 [2]: 29.9 µM (inactive) | IC50 [3]: 48.1 µM (inactive)

O=C(C1=C(c2ccccc2)C(=O)c2ccccc2C1=O)c1ccccc1
IC50 [4]: 13.8 µM (inactive) | AC50 [5]: 8.2 µM (active) | EC50 (BJ [6]): 5.95 µM (inconclusive) | EC50 [7]: > 150 µM (not active) | EC50 (BJ [8]): 7.17 µM (active) | IC50 (Hexokinase HKDC1): 10.1 µM (active) | EC50 [9]: 2.72 µM (active) | EC50 [10]: 2.73 µM (active) | EC50 (Protein RecA): 0.862 µM (active) | EC50 (BJ [11]): 8.65 µM (inconclusive)

CCOc1ccc(-c2nc(CSCC(=O)NC3CCCc4ccccc43)c(C)o2)cc1 (configuration not stated)
EC50 [12]: 3.26 µM (active) | IC50 [13]: 1.51 µM (active)

O=C(c1ccoc1)N1CCN(c2cc(-c3ccncc3)nc3cc(-c4cccc(Cl)c4)nn23)CC1
IC50 (H9c2): > 79 µM (inactive) | EC50 [14]: 3.43 µM (active) | EC50 [15]: 2.21 µM (active)

O=C(O)c1coc(-c2ccc(-c3ccccc3)cc2)n1
EC50 [16]: > 100 µM (inactive)

CC(=O)Nc1ccc(NC(=O)CSc2nnc(-c3cc4ccccc4o3)n2C)cc1
IC50 (Steroidogenic factor 1): 18.2 µM (inactive) | IC50 [17]: 35.9 µM (inactive) | IC50 [18]: 35.9 µM (inactive)
